# Patent US8679803B2, “Glucose conversion to ethanol via yeast cultures and bicarbonate ions” (Church & Dwight Co., Inc., priority 2007, dated 2014)
# Like-named read-outs stand apart in the source and are kept apart here.
# Tested on: Saccharomyces cerevisiae (Ethanol Red)
# Conditions: yeast 2.4 g/L, glucose concentration at 10%
# Description: Various concentrations of yeast were added to glucose based liquid media with and without NaHCO3 and the fermentation process monitored for glucose consumption and ethanol production.
# The fermentation media consisted of 25 gm of glucose and 1 ml of urea (45%) in 250 ml of water. The pH of the system was adjusted to 4.5 with 1 M H2SO4. The temperature of incubation was about 32° C., and the tests were conducted for 72 hours. The tests compared fermentation systems with and without sodium bicarbonate (NaHCO3). NaHCO3 was added to final concentrations of 200 ppm or 500 ppm in the test vessels. […] In some vessels the pH was readjusted to 4.5. Yeasts (Saccharomyces cerevisiae (Ethanol Red) diluted 1 to 5 in water, were added to the various test vessels at 0.5, 2, 3, 4 and 5 ml. Yeasts at 3 ml in the vessel corresponds to 2.4 g/L. The fermentation media vessels were monitored for glucose utilization and ethanol production via HPLC measurement at 2, 4, 6, 24, 48 and 72 hours.
structure (smiles),measurement,setting,value
"O=C([O-])O.[Na+] [SBC, sodium bicarbonate]",Ethanol (% after 48 hours),SBC 200 ppm,4.8%
same,Ethanol (% after 48 hours),SBC 500 ppm,4.8%
